Active and inactive are the calls of the source. The calls are words filed in the database; no cut-off is given here.
Legend:
[1] = target: T1, Poly [ADP-ribose] polymerase 1 (Homo sapiens, UniProt P09874); experiment: Inhibition of PARP1 (unknown origin) preincubated with compound for 10 mins followed by DNA and NAD+ addition and measured after 60 mins by chemiluminescence based envision reader analysis
[2] = Sub-acute toxicity in Kunming mouse assessed as change CK level at 30 to 100 mg/kg administered via gavage once every other day for 14 days; format: organism-based; conditions: in vivo, po, 336 h, dose 30-100 mg/kg, time 14 day
DLD-1 = experiment: Induction of DNA damage in BRCA2 knockout human DLD-1 cells assessed as increase in tail intensity at 100 to 1000 nM incubated for 3 days by PI staining based fluorescence microscopic analysis; format: functional, cell-based; conditions: dose 100-1000 nM, time 3.0 day
[3] = Cmax in male Balb/c mouse at 1 mg/kg, iv measured upto 96 hrs by LC-MS/MS analysis; format: ADME, organism-based; conditions: in vivo
MDA-MB-436 [4] = experiment: Antiproliferative activity against human MDA-MB-436 cells assessed as inhibition of cell proliferation at 100 nM incubated for 7 days by CCK-8 assay relative to control; format: functional; conditions: MDA-MB-436, 168 h, time 7 day
[5] = Sub-acute toxicity in Kunming mouse assessed as change ALTL level at 30 to 100 mg/kg administered via gavage once every other day for 14 days; format: organism-based; conditions: in vivo, po, 336 h, dose 30-100 mg/kg, time 14 day
[6] = Toxicity in female NOD/SCID mouse xenografted with human MDA-MB-436 cells assessed as histological changes in heart at 3 mg/kg, po administered once every other day for 28 days by H and E staining based analysis; format: organism-based; conditions: in vivo, 672 h, time 28 day
MDA-MB-436 [7] = experiment: Induction of cell cycle arrest in human MDA-MB-436 cells assessed as accumulation of cells at S phase at 10 nM incubated for 3 days by PI staining based flow cytometric analysis (Rvb =18.94%); format: functional; conditions: time 3 day
[8] = Cmax in rat at 2.5 mg/kg, iv measured upto 96 hrs by LC-MS/MS analysis; format: ADME, organism-based; conditions: in vivo
[9] = Acute toxicity in Kunming mouse assessed as change in heart structure at 300 mg/kg administered via gavage for 14 days by H and E staining based analysis; format: organism-based; conditions: in vivo, po, 336 h, time 14 day
MDA-MB-436 [10] = experiment: Induction of cell cycle arrest in human MDA-MB-436 cells assessed as accumulation of cells at G0/G1 phase at 1 nM incubated for 3 days by PI staining based flow cytometric analysis (Rvb =56.18%); format: functional; conditions: time 3 day
MDA-MB-436 [11] = experiment: Induction of apoptosis in human MDA-MB-436 cells assessed as late apoptotic cells at 10 nM incubated for 3 days by Annexin V/ PI staining based flow cytometry (reference value: 6.57%); format: functional; conditions: time 3 day
[12] = target: Poly [ADP-ribose] polymerase 2 (Homo sapiens, UniProt Q9UGN5); experiment: Inhibition of PARP2 (unknown origin) preincubated with compound for 10 mins followed by DNA and NAD+ addition and measured after 60 mins by chemiluminescence based envision reader analysis
[13] = Toxicity in female NOD/SCID mouse xenografted with human MDA-MB-436 cells assessed as histological changes in liver at 3 mg/kg, po administered once every other day for 28 days by H and E staining based analysis; format: organism-based; conditions: in vivo, 672 h, time 28 day
[14] = Cmax in male Balb/c mouse at 1 mg/kg, po measured upto 96 hrs by LC-MS/MS analysis; format: ADME, organism-based; conditions: in vivo
[15] = Clearance in male Balb/c mouse at 1 mg/kg, iv measured upto 96 hrs by LC-MS/MS analysis; format: ADME, organism-based; conditions: in vivo, iv, 1 mg/kg, 96 h
MDA-MB-436 [16] = experiment: Antitumor activity against human MDA-MB-436 cells xenografted in female NOD/SCID mouse assessed as tumor growth inhibition at 0.3 mg/kg, po administered once every other day for 28 days relative to control; format: functional; set-up: scale not given: the % may be the effect or the level left; conditions: time 28 day
MDA-MB-436 [17] = experiment: Induction of apoptosis in human MDA-MB-436 cells assessed as late apoptotic cells at 1 nM incubated for 3 days by Annexin V/ PI staining based flow cytometry (reference value: 6.57%); format: functional; conditions: time 3 day
MDA-MB-436 [18] = experiment: Induction of apoptosis in human MDA-MB-436 cells assessed as late apoptotic cells at 100 nM incubated for 3 days by Annexin V/ PI staining based flow cytometry (reference value: 6.57%); format: functional; conditions: time 3 day
[19] = Half life in rat at 2.5 mg/kg, iv measured upto 96 hrs by LC-MS/MS analysis; format: ADME, organism-based; conditions: in vivo
[20] = target: T1, Poly [ADP-ribose] polymerase 1; experiment: Binding affinity to PARP1 (unknown origin) assessed as DNA trapping activity incubated for 1 hr by Envision 2105 plate reader analysis
[21] = Acute toxicity in Kunming mouse assessed as change in kidney structure at 300 mg/kg administered via gavage for 14 days by H and E staining based analysis; format: organism-based; conditions: in vivo, po, 336 h, time 14 day
[22] = Apparent volume of distribution in rat at 2.5 mg/kg, po measured upto 96 hrs by LC-MS/MS analysis; format: ADME, organism-based; conditions: in vivo
[23] = Half life in male Balb/c mouse at 1 mg/kg, po measured upto 96 hrs by LC-MS/MS analysis; format: ADME, organism-based; conditions: in vivo, po, 1 mg/kg, 96 h
[24] = Oral bioavailability in male Balb/c mouse at 1 mg/kg measured upto 96 hrs by LC-MS/MS analysis; format: ADME, organism-based; conditions: in vivo
[25] = AUC(0 to t) in rat at 2.5 mg/kg, iv measured upto 96 hrs by LC-MS/MS analysis; format: ADME, organism-based; conditions: in vivo
[26] = Sub-acute toxicity in Kunming mouse assessed as change ASTL level at 100 to 300 mg/kg administered via gavage for 14 days; format: organism-based; conditions: in vivo, po, 336 h, dose 100-300 mg/kg, time 14 day

T1 sequence (P09874 whole entry): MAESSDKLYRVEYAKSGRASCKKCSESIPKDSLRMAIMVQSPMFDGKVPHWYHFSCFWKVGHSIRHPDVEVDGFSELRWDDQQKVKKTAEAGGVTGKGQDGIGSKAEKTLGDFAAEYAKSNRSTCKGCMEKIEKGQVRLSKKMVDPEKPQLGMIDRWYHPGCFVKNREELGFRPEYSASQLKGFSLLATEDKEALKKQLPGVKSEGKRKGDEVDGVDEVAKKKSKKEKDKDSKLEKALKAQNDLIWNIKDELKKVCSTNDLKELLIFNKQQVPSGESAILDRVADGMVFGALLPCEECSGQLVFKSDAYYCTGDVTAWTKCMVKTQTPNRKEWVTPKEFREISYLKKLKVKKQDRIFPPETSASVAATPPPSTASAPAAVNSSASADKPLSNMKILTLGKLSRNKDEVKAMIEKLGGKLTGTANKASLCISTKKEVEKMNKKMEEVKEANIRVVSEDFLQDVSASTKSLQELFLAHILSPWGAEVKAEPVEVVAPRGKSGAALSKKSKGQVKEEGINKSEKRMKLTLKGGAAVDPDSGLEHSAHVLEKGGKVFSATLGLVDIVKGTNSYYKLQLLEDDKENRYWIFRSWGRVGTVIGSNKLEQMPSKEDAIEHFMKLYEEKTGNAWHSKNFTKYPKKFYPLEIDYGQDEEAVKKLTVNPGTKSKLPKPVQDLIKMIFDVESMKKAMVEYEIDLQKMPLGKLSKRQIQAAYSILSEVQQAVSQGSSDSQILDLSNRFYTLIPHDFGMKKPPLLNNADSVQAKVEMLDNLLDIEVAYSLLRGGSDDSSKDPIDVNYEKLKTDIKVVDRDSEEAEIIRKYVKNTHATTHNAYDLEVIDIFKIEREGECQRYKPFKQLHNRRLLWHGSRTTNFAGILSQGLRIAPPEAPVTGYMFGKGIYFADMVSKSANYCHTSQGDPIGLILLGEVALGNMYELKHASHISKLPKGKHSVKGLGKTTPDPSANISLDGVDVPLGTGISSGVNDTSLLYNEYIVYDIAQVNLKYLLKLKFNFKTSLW
Chain of Poly [ADP-ribose] polymerase 2 (Q9UGN5 whole entry): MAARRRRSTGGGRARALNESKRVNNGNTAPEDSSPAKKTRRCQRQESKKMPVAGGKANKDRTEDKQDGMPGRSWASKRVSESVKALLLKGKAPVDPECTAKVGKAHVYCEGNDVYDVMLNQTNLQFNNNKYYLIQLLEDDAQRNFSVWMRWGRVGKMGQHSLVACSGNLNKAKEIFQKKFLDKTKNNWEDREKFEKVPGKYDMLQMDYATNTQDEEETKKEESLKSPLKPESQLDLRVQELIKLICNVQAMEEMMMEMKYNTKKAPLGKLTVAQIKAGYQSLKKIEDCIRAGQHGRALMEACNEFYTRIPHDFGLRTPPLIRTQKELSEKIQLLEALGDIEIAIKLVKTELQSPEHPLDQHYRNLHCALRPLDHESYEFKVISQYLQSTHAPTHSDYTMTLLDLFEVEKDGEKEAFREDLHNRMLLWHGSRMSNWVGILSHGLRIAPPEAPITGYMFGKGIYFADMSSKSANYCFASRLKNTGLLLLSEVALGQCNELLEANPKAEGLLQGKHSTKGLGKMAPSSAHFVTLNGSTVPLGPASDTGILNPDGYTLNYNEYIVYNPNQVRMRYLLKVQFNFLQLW

## CCc1cc2ncc(CN3CC=C(c4ccc(C#N)cn4)CC3)cc2[nH]c1=O
[1]
  IC50: 0.2 nM
[2]
  Activity: Non-toxic
DLD-1
  Activity: Active
[3]
  Cmax: 10700 ng/mL
MDA-MB-436 [4]
  inhibition at 0.1 µM: 82.2%
[5]
  Activity: Non-toxic
[6]
  Activity: Non-toxic
MDA-MB-436 [7]
  Activity: 10.18%
[8]
  Cmax: 13900 ng/mL
[9]
  Activity: Non-toxic
MDA-MB-436 [10]
  Activity: 56.97%
MDA-MB-436 [11]
  Activity: 9.94%
[12]
  IC50: 122 nM
[13]
  Activity: Non-toxic
[14]
  Cmax: 6630 ng/mL
[15]
  CL: 0.17 mL/min/kg
MDA-MB-436 [16]
  Activity: 89.9%
MDA-MB-436 [17]
  Activity: 8.18%
MDA-MB-436 [18]
  Activity: 9.92%
[19]
  half-life: 27.8 h
[20]
  EC50: 0.9 nM
[21]
  Activity: Non-toxic
[22]
  Vz: 0.33 L/kg
[23]
  t1/2: 76.07 h
[24]
  bioavailability: 87.7%
[25]
  AUC(0-t) at 96 h: 510 µg·h/mL
[26]
  Activity: Non-toxic
